Laboratory results reported in patent US20190070268A1, “ABUSE-DETERRENT PHARMACEUTICAL COMPOSITIONS” (priority 2016, published 2019).

Tests used:
[1] = tested on: Humicola insolens cutinase (HiC); format: biochemical
[2] = biological target: T1, Thermobifida cellulosilytica cutinase 1 (THC) (Thermobifida cellulosilytica, UniProt E9LVH8); format: biochemical
T1 construct: made in house
T1 sequence (E9LVH8 1-262): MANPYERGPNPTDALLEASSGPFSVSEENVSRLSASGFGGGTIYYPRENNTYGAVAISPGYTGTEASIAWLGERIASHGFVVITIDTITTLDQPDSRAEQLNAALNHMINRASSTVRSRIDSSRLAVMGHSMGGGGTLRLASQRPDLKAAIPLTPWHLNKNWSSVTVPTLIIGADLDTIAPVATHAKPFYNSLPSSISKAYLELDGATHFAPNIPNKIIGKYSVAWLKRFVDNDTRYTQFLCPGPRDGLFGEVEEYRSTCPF

laccase mediator system [3] = test: Laccase mediator system and methadone, oxygen measurement; format: biochemical; details: mediator ABTS (best effect)
Method: (§1) During the reaction oxygen acts as electron acceptor and is reduced to water by laccases while the mediators are oxidized. The concentration of oxygen was measured as described above. Oxygen is consumed until the mediator is fully oxidized. […] The second step of the reaction is initiated by addition of the target substrate, which is consequently oxidized by the mediators.
(§2) In the present experiments the final reaction mixtures contained 0.2 to 6 mM mediator, 1-10 units of laccase per ml and 100-3000 mg L^−1 opioid.
For methadone, oxygen measurements were done, but with an extended palette of mediators: In addition to the aforementioned mediators, syringic acid, TEMPO, syringol and ABTS were tested.

[4] = tested on: laccase from Myceliophthora thermophila (MtL); test: Polymerization of morphine with laccase from Myceliophthora thermophila (high concentrations); format: biochemical; details: MTL 10 U to 100 U, 50 mM sodium phosphate buffer pH 7
Method: The reactions were carried out in 50 mM sodium phosphate buffer pH 7.

laccase = test: Thin layer chromatography of enzymatic conversion; format: biochemical; details: samples at 2, 10, 30, 60, 120 minutes
[5] = tested on: laccase from Trametes villosa (TvL); test: Oxygen measurement of laccase catalysed oxidation of opioids (TvL); format: biochemical; details: 10 U/ml TvL, 2 mg/ml substrate, distilled water; for oxygen concentration in solution upon laccase oxidation: room temperature
From the text: (§3) Laccases use oxygen as electron acceptor, consequently the oxygen concentration decreases upon substrate oxidation.

laccase mediator system [6] = test: Laccase mediator system and oxycodone, HPLC-MS/TOF; format: biochemical
Method: The concentrations were determined with a liquid chromatography-electrospray ionization-time of flight (HPLC-ESI-TOF) mass spectrometer from Agilent (A1260 series, Agilent US). The substances contained in the samples were separated by a Zorbax Hilic Plus, 2.1×100 mm, 3.5 μm (Agilent, US) column. The gradient was set to 100% mobile phase A (65 mM ammonium formiate pH 3.2) with a flow rate of 0.4 mL min^−1 at 40° C. and changed to 100% mobile phase B (acetonitrile) in 15 minutes with an injection volume of 1 μL. The spectra were acquired over the m/z range from 100 to 3000 at a scan rate of two spectra per second. The standard curve for each opioid was performed with corresponding standards ranging from 0.001 to 50 mg L^−1.
In addition to the reactions shown in FIG. 17, the mediator vanillin was used at a higher concentration (6 mM). The results can be seen in FIG. 18 and FIG. 19. […] One of oxycodone's main degradation products, oxymorphone, was found in all samples. Oxymorphone is an impurity of oxycodone and is therefore present even in the controls where no laccase or mediator were used.

laccase mediator system [7] = test: Laccase mediator system and oxycodone, oxygen concentration measurement; format: biochemical; details: 10 units laccase/ml, 1000 mg/L oxycodone
Method: as §1, §2
The different mediators were used at concentrations of 2 mM with 10 units laccase ml^−1 and 1000 mgL^−1 oxycodone.

[8] = tested on: laccase from Myceliophthora thermophila (MtL); test: Oxygen measurement of laccase catalysed oxidation of opioids (MtL); format: biochemical; details: 10 U/ml MtL, 2 mg/ml substrate, distilled water, room temperature
From the text: as §3

pepsin = biological target: T2, pepsin (Sus scrofa, UniProt P00791); test: Pepsin digestion assay in simulated gastric fluid with SDS-PAGE; format: in vitro ADME; details: SGF pH 1.2 with pepsin, 37° C.
T2 construct: purchased Sigma-Aldrich (US) P7000
T2 sequence (P00791 60-385): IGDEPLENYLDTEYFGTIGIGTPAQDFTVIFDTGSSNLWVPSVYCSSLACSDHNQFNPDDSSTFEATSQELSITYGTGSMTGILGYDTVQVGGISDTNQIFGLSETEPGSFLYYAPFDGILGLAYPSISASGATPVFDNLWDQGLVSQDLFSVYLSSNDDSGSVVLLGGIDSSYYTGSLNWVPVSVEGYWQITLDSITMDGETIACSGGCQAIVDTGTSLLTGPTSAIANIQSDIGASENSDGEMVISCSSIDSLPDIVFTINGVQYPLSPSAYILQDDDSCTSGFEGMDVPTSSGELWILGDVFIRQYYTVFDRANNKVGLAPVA
Method: SGF contains 0.084 M HCl, 0.035 M NaCl, 4000 U of pepsin per reaction mixture and has a pH level of 1.2 according to the United States Pharmacopeia (1995). A ratio of 10000 Units of pepsin activity to 1 mg of test protein was used throughout the assay, which is based on an evaluation of the average activity of pepsin recommended in the United States Pharmacopeia (24th edition, 2000) with some modifications. Pepsin (ref. #P7000) was purchased from Sigma-Aldrich (US). All proteins that were used were dissolved in 50 mM Tris-HCl (pH 9.5) at a concentration of 5 mg mL^−1. The reaction mixture contained 1.52 mL of SGF preheated to 37° C. before the addition of 0.08 mL of protein solution (Thomas et al., 2004). The mixture was placed into a thermomixer at 37° C. and was shaken at 400 rpm. For denaturating SDS-polyacrylamide gel electrophoresis (SDS-PAGE) analysis samples of 160 μl were removed at 0 minutes, 0.5 minutes, and 15 minutes after initiation.
SDS-PAGE was performed to analyze and visually inspect stained protein bands whether the protein band is still intact or fragmented after the digestion assay. […]
Each 160 μl of the digestion samples was quenched by adding 56 μl of 200 mM NaHCO3 as neutralization step and 56 μl 4× Laemmli (Laemmli 1970) buffer for electrophoresis. Samples were immediately heated up to 99° C. for 10 minutes and analyzed directly or stored at −20° C. […]

## CC(=O)Oc1ccc2c3c1O[C@H]1[C@@H](OC(C)=O)C=C[C@H]4[C@@H](C2)N(C)CC[C@@]341 [diacetylmorphine]
[1]
  DAM concentration: declines
  morphine concentration formed from DAM: increased
[1]; pH 7
  diacetylmorphine hydrolyzed (total acetate yield, HPLC/RI): more than 50%
[2]
  DAM concentration: declines
  morphine concentration formed from DAM: increased
[2]; pH 7
  diacetylmorphine hydrolyzed (total acetate yield, HPLC/RI): more than 50%

## CCC(=O)C(CC(C)N(C)C)(c1ccccc1)c1ccccc1 (stereo not drawn) [methadone]
Laccase mediator system [3]
  oxygen concentration after addition of the opioid: decline in oxygen concentration

## CN1CC[C@]23c4c5ccc(O)c4O[C@H]2[C@@H](O)C=C[C@H]3[C@H]1C5 [morphine]
[4]
  faster degradation of morphine with 10 times more laccase: ~10 times
laccase
  time at which new dot(s) appear on TLC (new product): 120 s

## COc1ccc2c3c1O[C@H]1C(=O)CC[C@@]4(O)[C@@H](C2)N(C)CC[C@]314 [oxycodone]
[5]
  oxygen concentration in solution upon laccase oxidation: not capable of converting oxycodone
Laccase mediator system [6]; laccase mediator system, mediators at 2 mM, vanillin also 6 mM
  oxycodone concentration (HPLC-MS/TOF): decrease in oxycodone concentration was confirmed
Laccase mediator system [6]; mediator gallic acid
  effect on oxycodone (MS-TOF analysis): no apparent effect
Laccase mediator system [6]; oxycodone in combination with the laccase mediator system
  peak area of oxymorphone (degradation product) by MS-TOF: increase in peak area of oxymorphone over time
Laccase mediator system [7]; mediator ethylvanillin 2 mM
  oxygen concentration after addition of the opioid: drop in oxygen concentration
Laccase mediator system [7]; mediator gallic acid 2 mM
  oxygen concentration after addition of the opioid: no apparent effect
Laccase mediator system [7]; mediator syringic acid 2 mM
  oxygen concentration after addition of the opioid: drop in oxygen concentration
Laccase mediator system [7]; mediator vanillin 2 mM
  oxygen concentration after addition of the opioid: drop in oxygen concentration
[8]
  oxygen concentration in solution upon laccase oxidation: not capable of converting oxycodone

## CC[C@@H](c1cccc(O)c1)[C@@H](C)CN(C)C [tapentadol]
[5]
  oxygen level to which the curve drops: ~0%
  oxygen concentration in solution upon laccase oxidation: converts tapentadol better
[8]
  oxygen concentration in solution upon laccase oxidation: much slower
laccase
  time at which new dot(s) appear on TLC (new product): 120 s
  time at which the reference dot disappears on TLC (all converted): 120 min

## HRP: horse radish peroxidase
pepsin
  proteolytic degradation (SDS-PAGE): very susceptible to proteolytic degradation
